Measurements: patent US8772504B2, “Substituted benzoxazole, benzimidazole, oxazolopyridine and imidazopyridine derivatives as gamma secretase modulators” (Janssen Pharmaceuticals, Inc., priority 2009, dated 2014)

Columns and labels:
[1] = tested on: Aβ42; experiment: Screening for γ-secretase-modulating activity, Method 1: Aβ42 sandwich ELISA on SKNBE2 cell media; type: cell-based; details: SKNBE2 cells carrying APP 695 wild type
In short: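 SKNBE2 cells expressing wild-type APP695 were treated with compound for 18 h in Ultraculture/1% glutamine. Secreted Aβ42 was quantified by sandwich ELISA (C-terminal capture, biotinylated 3D6, TMB, 450 nm), with WST-1 used as a toxicity check. IC50 was derived from 4-parameter fits of % inhibition or % of untreated control.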

[2] = tested on: Aβtotal; experiment: Screening for γ-secretase-modulating activity, Method 1: Aβtotal sandwich ELISA on SKNBE2 cell media; type: cell-based; details: SKNBE2 cells carrying APP 695 wild type
In short: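 SKNBE2 cells expressing wild-type APP 695 were treated with compound for 18 hours. Aβtotal in the medium was measured by sandwich ELISA (6E10 capture, biotinylated 4G8 detection, fluorogenic peroxidase read-out). IC50 came from a 4-parameter fit of % inhibition with top/bottom fixed at 100/0 and Hill slope 1, or as averaged IC50 from % of untreated control.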

[3] = tested on: Aβ42; experiment: In vivo efficacy Method 1: brain soluble Aβ42 by ELISA; set-up: species or system mouse; details: Table 4a, single oral dose, overnight fasted animals, sacrificed after 4 h, soluble fraction of brain homogenates
Source text: (§1) To determine whether acute administration of an Aβ42 lowering agent would reduce Aβ42 levels in vivo, non-transgenic rodents, e.g. mice or rats were used. Alternatively, two to three month old Tg2576 mice expressing APP695 containing the “Swedish” variant can be used or a transgenic mouse model developed by Dr. Fred Van Leuven (K.U. Leuven, Belgium) and co-workers, with neuron-specific expression of a clinical mutant of the human amyloid precursor protein [V717I] […] Young transgenic mice have high levels of Aβ in the brain but no detectable Aβ deposition. At approximately 6-8 months of age, the transgenic mice start to display spontaneous, progressive accumulation of β-amyloid (Aβ) in the brain, eventually resulting in amyloid plaques within the subiculum, hippocampus and cortex. Animals treated with the Aβ42 lowering agent were examined and compared to those untreated or treated with vehicle and brain levels of soluble Aβ42 and total Aβ would be quantitated by standard techniques, for example, using ELISA.
(§2) A typical protocol for measuring Aβ42 lowering in vivo is shown but it is only one of many variations that could be used to optimize the levels of detectable Aβ. For example, Aβ42 lowering compounds were formulated in 20% of Captisol® (a sulfobutyl ether of β-cyclodextrin) in water or 20% hydroxypropyl β cyclodextrin. The Aβ42 lowering agents were administered as a single oral dose or by any acceptable route of administration to overnight fasted animals. After 4 h, the animals were sacrificed and Aβ42 levels were analysed.
(§3) Blood was collected by decapitation and exsanguinations in EDTA-treated collection tubes. Blood was centrifuged at 1900 g for 10 minutes (min) at 4° C. and the plasma recovered and flash frozen for later analysis. The brain was removed from the cranium and hindbrain. The cerebellum was removed and the left and right hemisphere were separated. The left hemisphere was stored at −18° C. for quantitative analysis of test compound levels. The right hemisphere was rinsed with phosphate-buffered saline (PBS) buffer and immediately frozen on dry ice and stored at −80° C. until homogenization for biochemical assays.
(§4) All samples were sonicated for 30 seconds on ice at 20% power output (pulse mode). Homogenates were centrifuged at 221.300×g for 50 min. The resulting high speed supernatants were then transferred to fresh tubes and were optionally further purified before the next step. A portion of the supernatant was neutralized with 10% 0.5 M Tris-HCl and this was used to quantify Aβtotal.
(§5) The obtained supernatants were purified with Water Oasis HLB reverse phase columns (Waters Corp., Milford, Mass.) to remove non-specific immunoreactive material from the brain lysates prior subsequent Aβ detection. Using a vacuum manifold, all solutions were passed through the columns at a rate of approximately 1 ml per min, so the vacuum pressure was adjusted accordingly throughout the procedure. Columns were preconditioned with 1 ml of 100% MeOH, before equilibration with 1 ml of H2O, Non-neutralized brain lysates were loaded onto the columns. The loaded samples were then washed twice with the first wash performed with 1 ml of 5% MeOH, and the second wash with 1 ml of 30% MeOH. Finally, the Aβ was eluted from the columns and into 100×30 mm glass tubes, with a solution of 90% MeOH with 2% NH4OH. The eluate was then transferred into 1.5 ml tubes and concentrated in a speed-vac concentrator on high heat for about 1.5-2 h at 70° C. The concentrated Aβ was then resuspended in UltraCULTURE General Purpose Serum-Free Medium (Cambrex Corp., Walkersville, Md.) plus Protease Inhibitors added.
To quantify the amount of Aβ42 in the soluble fraction of the brain homogenates, commercially available Enzyme-Linked-Immunosorbent-Assay (ELISA) kits were used (e.g. Innotest® β-Amyloid(1-42), Innogenetics N.V., Ghent, Belgium). The Aβ42 ELISA was performed using the plate provided with the kit only.

[4] = tested on: Aβtotal; experiment: In vivo efficacy Method 1: brain soluble Aβtotal by ELISA; set-up: species or system mouse; details: Table 4a, single oral dose, overnight fasted animals, sacrificed after 4 h, soluble fraction of brain homogenates
Source text: as §1, §2, §3, §4
as §5, with “added. […]” for “added.”

[5] = tested on: Aβ42; experiment: Screening for γ-secretase-modulating activity, Method 2: Aβ42 Alphalisa on SKNBE2 cell supernatant; type: cell-based; details: Method 2, Table 3c, SKNBE2 cells carrying APP 695 wild type, overnight incubation
In short: (§6)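 SKNBE2 cells expressing wild-type APP695, plated at 10^4 cells/well with compound at several concentrations and incubated overnight at 37° C. Aβ42 (C-terminal capture, N-terminal biotinylated detection) and Aβtotal (N-terminal/4G8 pair) measured in supernatant by AlphaLISA. IC50 from 4-parameter fit of percent of compound-free control.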

[6] = tested on: Aβtotal; experiment: Screening for γ-secretase-modulating activity, Method 2: Aβtotal Alphalisa on SKNBE2 cell supernatant; type: cell-based; details: Method 2, Table 3c, SKNBE2 cells carrying APP 695 wild type, overnight incubation
In short: as §6

[7] = Homo sapiens, Table 3a, 18 hours, XLfit, top/bottom fixed to 100 and 0, hill slope 1
[8] = Homo sapiens, Table 3b, non-linear regression of % of control, averaged IC50 values
[9] = Table 3a, 18 hours, XLfit, top/bottom fixed to 100 and 0, hill slope 1
[10] = Table 3b, non-linear regression of % of control, averaged IC50 values

SMILES | IC50 [1, 7] | IC50 [1, 8] | IC50 [2, 7] | IC50 [2, 8] | IC50 [1, 9] | IC50 [1, 10] | IC50 [2, 9] | IC50 [2, 10] | IC50 [5] | IC50 [6] | IC50 ([5]; Homo sapiens) | IC50 ([6]; Homo sapiens) | Aβ42 (% Ctrl) _Mean [3] | Aβtotal (% Ctrl) _Mean [4]
Cc1cn(-c2ccc(Nc3cccc4c3nc(-c3ccc(F)cc3)n4C)nc2)cn1 [Compound 5] | 0.031 µM | 0.03 µM | > 3 µM | > 3 µM |  |  |  |  |  |  |  |  | 62 % Ctrl | 94 % Ctrl
Cc1cn(-c2ccc(Nc3cccc4c3nc(-c3ccc(F)cc3)n4C)cc2)cn1 [Compound 7] | 0.022 µM | 0.023 µM | > 1 µM | > 3 µM |  |  |  |  |  |  |  |  | 58 % Ctrl | 89 % Ctrl
COc1cc(Nc2cccc3oc(CC(C)C)nc23)ccc1-n1cnc(C)c1 [Compound 18] | 0.101 µM | 0.102 µM | > 5 µM | > 10 µM |  |  |  |  |  |  |  |  | 81 % Ctrl | 95 % Ctrl
COc1cc(Nc2cccc3c2nc(N2CC(C)OC(C)C2)n3C)ccc1-n1cnc(C)c1 (stereo not shown) [Compound 44] |  |  |  |  | 0.135 µM | 0.135 µM | > 5 µM | > 5 µM |  |  |  |  | 91 % Ctrl | 101 % Ctrl
Cc1cn(-c2ccc(Nc3cccc4c3nc(-c3ccc(F)cc3)n4C)cn2)cn1 [Compound 68] |  |  |  |  | 0.027 µM | 0.026 µM | > 1 µM | > 1 µM | 0.035 µM | > 10 µM |  |  |  | 
COc1cc(Nc2cccc3c2nc(-c2ccc(F)cc2)n3C(C)(C)C)ccc1-n1cnc(C)n1 [Compound 78] |  |  |  |  | < 0.11 µM | < 0.11 µM | > 3 µM | > 3 µM | 0.1 µM | > 10 µM |  |  |  | 
COc1cc(Nc2cccc3oc(-c4cccnc4)nc23)ccc1-n1cnc(C)c1 [Compound 86] |  |  |  |  | > 3 µM | > 3 µM | > 3 µM | > 3 µM | > 10 µM | > 10 µM |  |  |  | 
Cc1ncn(-c2ccc(Nc3cccc4oc(CC(C)C)nc34)nc2)n1 [Compound 87] |  |  |  |  | > 3 µM | > 3 µM | > 3 µM |  | > 10 µM | > 10 µM |  |  |  | 
Cc1ncn(-c2ccc(Nc3cccc4c3nc(-c3ccc(F)cc3)n4C(C)C)nc2)n1 [Compound 89] |  |  |  |  | 0.326 µM | 0.324 µM | > 3 µM | > 3 µM | 0.575 µM | > 10 µM |  |  |  | 
Cc1ncn(-c2c(F)cc(Nc3cccc4c3nc(-c3ccc(F)cc3)n4C)cc2F)n1 [Compound 102] |  |  |  |  | 0.839 µM | 0.871 µM | > 3 µM | > 3 µM | 1.29 µM | 8.13 µM |  |  |  | 
COc1cc(Nc2cccc3c2nc(-c2ccc(Cl)s2)n3C(C)C)ccc1-n1cnc(C)n1 [Compound 121] |  |  |  |  |  | 0.02 µM |  | > 3 µM | 0.034 µM | > 10 µM |  |  |  | 
COCCCc1cc(Nc2ccc(-n3cnc(C)n3)c(OC)c2)c2nc(-c3ccc(F)cc3)n(C)c2n1 [Compound 208] |  | 0.035 µM |  | > 3 µM |  |  |  |  |  |  | 0.091 µM | > 10 µM |  | 

Continued, in another order:

IC50 [1, 7] | IC50 [1, 8] | IC50 [2, 7] | IC50 [2, 8] | IC50 [1, 9] | IC50 [1, 10] | IC50 [2, 9] | IC50 [2, 10] | IC50 [5] | IC50 [6] | IC50 ([5]; Homo sapiens) | IC50 ([6]; Homo sapiens) | SMILES | Aβ42 (% Ctrl) _Mean [3] | Aβtotal (% Ctrl) _Mean [4]
0.013 µM | 0.013 µM | > 1 µM | > 3 µM |  |  |  |  |  |  |  |  | COc1cc(Nc2cccc3c2nc(-c2ccc(F)cc2F)n3C)ccc1-n1cnc(C)c1 [Compound 3] | 46 % Ctrl | 87 % Ctrl
 |  |  |  | 0.104 µM | 0.126 µM | > 3 µM | > 3 µM |  |  |  |  | COc1cc(Nc2cccc3c2nc(C2CCCCC2)n3C)ccc1-n1cnc(C)c1 [Compound 38] | 72 % Ctrl | 101 % Ctrl
0.015 µM | 0.013 µM | > 1 µM | > 3 µM |  |  |  |  |  |  |  |  | COc1cc(Nc2cccc3[nH]c(-c4ccccc4C)nc23)ccc1-n1cnc(C)c1 [Compound 45] | 93 % Ctrl | 94 % Ctrl
 |  |  |  | 0.02 µM | 0.025 µM | > 1 µM | > 3 µM |  |  |  |  | COCCn1c(-c2cccc(OC)c2)nc2c(Nc3ccc(-n4cnc(C)c4)c(OC)c3)cccc21.Cl.Cl [Compound 54] | 71 % Ctrl | 96 % Ctrl
 |  |  |  | 0.027 µM | 0.024 µM | > 3 µM | > 3 µM | 0.021 µM | > 10 µM |  |  | COc1cc(Nc2cccc3c2nc(-c2ccccc2F)n3C)ccc1-n1cnc(C)c1 [Compound 66] |  | 
 |  |  |  |  | 0.033 µM |  | > 3 µM | 0.028 µM | > 10 µM |  |  | COc1cc(Nc2cccc3c2nc(-c2ccc(C(F)(F)F)nc2)n3C(C)C)ccc1-n1cnc(C)c1 [Compound 117] |  | 
 |  |  |  |  | 0.05 µM |  | > 3 µM | 0.021 µM | > 10 µM |  |  | Cc1cn(-c2ccc(Nc3nccc4c3nc(-c3ccc(F)cc3)n4C)cc2F)cn1 [Compound 137] |  | 
 |  |  |  |  | 0.316 µM |  | > 10 µM | 0.195 µM | 9.77 µM |  |  | COc1nc(Nc2nc(C)cc3c2nc(-c2ccccc2Cl)n3C)ccc1-n1cnc(C)c1 [Compound 149] |  | 
 |  |  |  |  | 0.437 µM |  | 6.92 µM | 0.145 µM | 4.9 µM |  |  | COc1nc(Nc2nc(C)cc3c2nc(-c2ccc(F)cc2)n3C)ccc1-n1cnc(C)c1 [Compound 150] |  | 
 |  |  |  |  | 0.005 µM |  | > 3 µM | 0.011 µM | 4.9 µM |  |  | COc1nc(Nc2cc(F)cc3c2nc(-c2ccccc2Cl)n3C)ccc1-n1cnc(C)c1 [Compound 151] |  | 
 |  |  |  |  | 0.048 µM |  | > 3 µM | 0.029 µM | 4.27 µM |  |  | COc1cccc(-c2nc3c(Nc4ccc(-n5cnc(C)n5)c(OC)c4)nc(C)cc3n2C)c1 [Compound 163] |  | 
